Experimental findings from patent US11590117B2, “Treatment of a hematologic malignancy with 2-(4-chlorophenyl)-n-((2-(2,6-dioxopiperidin-3-yl)-1-oxoisoindolin-5-yl)methyl)-2,2-difluoroacetamide” (priority 2016, dated 2023) are described below.

Structures are written as SMILES. pEC50: −log10 of the molar value. Read-outs that look alike come from different tables or passages of the source.

The term pEC50 denotes the EC50 on a negative log10 scale, so that one unit is a factor of ten.

The experiment deals with AML cell lines. Briefly: IncuCyte Kinetic Caspase-3/7 Apoptosis Assay, panel of twenty AML cell lines. It is filed as cell-based. Particulars: Homo sapiens. From the text:
Methods. Acute Myeloid Leukemia Cell Line Panel: Human AML cell lines, AML-193, F36-P, GDM-1, HL-60, HNT-34, Kasumi-1, Kasumi-3, KG-1, KG-1a, ML-2, MOLM-13, MUTZ-8, MV-4-11, NOMO-1, OCI-AML2, OCI-AML3, SIG-M5, TF-1, THP-1, and UT-7 were obtained from American Type Culture Collection (ATCC; Manassas, Va.) and Deutsche Sammlung von Mikroorganismen und Zellkulturen (DSMZ) (Germany) cell banks. The AML panel includes cell line(s) from each FAB classification (M0-M7) (Table 7).
Cell Culture Conditions: Cell lines were maintained in growth media containing 20% fetal bovine serum (FBS) (Hyclone Cat no. SH30910.03, Lot no. AZF188864; Corning REFno. 35-010-CV, Lot no. 35010124) supplemented with or without 10 ng/mL human recombinant granulocyte-macrophage colony stimulating factor (Sigma-Aldrich Cat no. SRP3050) (Table 8). Medium was purchased from ATCC (Cat no. 30-2001, 30-2002, 30-2003, 30-2005) and Gibco (REF no. 12561-056). Human recombinant granulocyte macrophage colony stimulating factor (GM-CSF) was expressed in Escherichia coli. The cell doubling times for each cell line were provided by ATCC and DSMZ. Cells were maintained in humidified incubators at 5% carbon dioxide (CO2). All cell lines were acclimated to Eagle's minimal essential medium (EMEM)+20% FBS with or without GM-CSF over 2 to 4 weeks prior to live cell imaging using IncuCyte Zoom (Essen Biosciences). The use of EMEM was necessary to eliminate background fluorescence caused by riboflavin in most media.
Incubation of Cell Cultures with Compound 1: Compound 1 was provided for studies by Celgene chemistry group at a stock concentration of 30 mM in 20 μL dimethyl sulfoxide (DMSO) frozen. Costar 96-well cell culture plates (Corning Cat no. 3595) were coated with 100 μL of 10 µg/mL fibronectin (Sigma-Aldrich Cat no. F1141) for 4 hours at 37° C. and immediately used or refrigerated overnight for later use. Cells (3000 to 6000 cells) were plated in growth medi in fibronectin-coated 96-well plates and incubated for a minimum of a few hours to overnight. Cells were incubated with a 12-point concentration response in triplicate with Compound 1 ([…]) including DMSO and Media controls. A 3-fold serial dilution of Compound 1 starting from a concentration of 200 μM in 0.6% DMSO (diluted in Media) was performed. For most sensitive cell lines, a 3-fold serial dilution of Compound 1 starting from a concentration of 20 μM in 0.6% DMSO (diluted in media) was performed. A volume of 5 μL or 10 μL for each dilution was added to 100 μL or 200 μL cells, respectively (0.3% DMSO final) and incubated for live cell imaging.
Live Cell Imaging on IncuCyte Zoom: Following incubation of cells with Compound 1, diluted Caspase 3/7 reagent (Essen Biosciences Cat no. 4440) is added to each well. The Caspase-3/7 reagent couples the activated caspase-3/7 recognition motif (DEVD) to NucView™488, a DNA intercalating dye. The cleavage of substrate by activated caspase-3/7 results in the release of the DNA dye and green fluorescent staining of nuclear DNA. This allows imaging of cells undergoing caspase-3/7 mediated apoptosis over time. Caspase-3/7 activation was quantified using the IncuCyte™ ZOOM basic analyzer. Red-labeled cell lines were also imaged over time using the IncuCyte™ ZOOM basic analyzer, for determination of both cell doubling time and Compound 1 effect on cell viability. Experiments were performed at least two times in each cell line.
Next, a 4 parameter log-logistic model was used to determine relative EC50 at each time point by the ‘drm’ function from the R ‘drc’ package (Ritz C, Streibig J C. Bioassay Analysis using R. J. Statist. Software 2005; 12(5):1-22). Goodness of fit was measured by R squared (coefficient of determination or the amount of variation explained by the model fit) of ≥80%, and EC50 parameter was assessed by having a ratio of standard error to the parameter of ≤40%, and the presence of at least one concentration point above and below the reported EC50. […]

Regarding `O=C1CCC(N2Cc3cc(CNC(=O)C(F)(F)c4ccc(Cl)cc4)ccc3C2=O)C(=O)N1` (stereo not shown) [Compound 1, 2-(4-chlorophenyl)-N-((2-(2,6-dioxopiperidin-3-yl)-1-oxoisoindolin-5-yl)methyl)-2,2-difluoroacetamide], the negative-log EC50 (pEC50) runs as follows: (12 h, 8 most sensitive cell lines (5 lines with curve fits), 12 hours, read-out: apoptosis EC50 12hr (range)) 6.64 to 7.28; (24 h, 14 of 20 cell lines with successful curve fits, 24 hours, read-out: apoptosis EC50 24hr (range)) 6.04 to 8.15; (48 h, eight highly sensitive cell lines (HNT-34, Kasumi-3, HL-60, ML-2, MV4-11, KG-1, MUTZ-8, GDM-1), 48 hours, read-out: apoptosis EC50 48hr (range)) 7.31 to 8.40; (48 h, eight highly sensitive cell lines, 48 hours, read-out: apoptosis average EC50 48hr) 7.57; (48 h, four least sensitive cell lines (UT-7, F36-P, MOLM-13, OCI-AML3), 48 hours, read-out: apoptosis EC50 48hr (range)) 6.05 to 6.64; (48 h, four least sensitive cell lines (UT-7, F36-P, MOLM-13, OCI-AML3), 48 hours, read-out: apoptosis average EC50 48hr) 6.34. In addition, the pEC50 is 6.84 to 7.09 (48 h, seven moderately sensitive cell lines (OCI-AML-2, AML-193, SIG-M5, Kasumi-1, TF-1, Nomo-1, KG-1a), 48 hours, read-out: apoptosis EC50 48hr (range)); 6.94 (48 h, seven moderately sensitive cell lines, 48 hours, read-out: apoptosis average EC50 48hr); 6.01 to 8.52 (72 h, AML cell panel, 72 hours, read-out: apoptosis EC50 72hr (range)); 6.38 to 9.00 (96 h, AML cell panel, 96 hours, read-out: apoptosis EC50 96hr (range)).
